2 compounds from US9713614B2, “Combination of HMG-CoA reductase inhibitors with phosphodiesterase 4 inhibitors for the treatment of inflammatory pulmonary diseases” (TAKEDA GMBH, priority 2006, dated 2017) can be followed below.

In the test the test system is LPS-induced systemic TNFα release. Kind of test: Inhibition of LPS-induced systemic TNFα release in rats. The test is classed as in vivo, rat. The conditions noted are these: for ED50: Rattus norvegicus, male Sprague Dawley rats, by gavage 1 h before i.v. LPS 0.1 mg/kg, plasma TNFα by ELISA 90 min after LPS, from dose-response curves. The protocol:
Pharmacology: Synergistic Inhibition of LPS-Induced Systemic TNFα Release in Rats by a Combination of ATORVASTATIN Hemi-Calcium Sesqui-Hydrate and 2-{4-[(4aS,8aR)-4-(3,4-dimethoxyphenyl)-1-oxo-4a,5,8,8a-tetrahydro-1H-phthalazin-2-yl]-piperidin-1-yl}-acetamide (COMPOUND A) Animals:
male Sprague Dawley rats 200-280 g
ATORVASTATIN hemi-calcium sesqui-hydrate (Alexis Pharmaceuticals, San Diego, Calif., USA) and COMPOUND A (ALTANA Pharma, Konstanz, Germany).
Drugs were administered by gavage as a methocel/polyethylenglycol 400 suspension 1 h before intravenous administration of LPS (0.1 mg/kg). Euthanasia was induced 90 minutes later by injecting pentobarbital (48 mg/kg) and heparin (1,000 U/kg). Heparinized blood was obtained by heart puncture. Blood was centrifuged (21,000×g, 4° C., 15 min), and plasma samples were kept frozen at −80° C. until determination of TNFα levels by a commercially available ELISA kit (Quantakine®M, Rat TNFα immunoassay, R&D, MN, USA).
All data are given as mean±SEM. Significances were calculated on the primary TNFα concentrations in comparison with the LPS-challenged control group using ANOVA with subsequent Dunnett's Test provided by GraphPadPrism software package. Differences with p<0.05 were considered significant. Dose-response curves were calculated by non-linear regression analysis within fixed limits of 0 to 100% inhibition. 50% inhibitory dose (ED50) values were derived from dose-response curves.
(In general: ELISA stands for enzyme-linked immunosorbent assay.)

By ED50 is commonly meant the dose at which the effect has come halfway, by size or by number of responders.

On to `COc1ccc(C2=NN(C3CCN(CC(N)=O)CC3)C(=O)[C@@H]3CC=CC[C@H]23)cc1OC` [COMPOUND A, 2-{4-[(4aS,8aR)-4-(3,4-dimethoxyphenyl)-1-oxo-4a,5,8,8a-tetrahydro-1H-phthalazin-2-yl]-piperidin-1-yl}-acetamide], for which the ED50 was 0.14 mg/kg. The “increase of LPS-induced TNFα versus placebo” value (COMPOUND A alone 0.013 mg/kg by gavage, rats, no significant effect) was found to be 1%.

Take `CC(C)c1c(C(=O)Nc2ccccc2)c(-c2ccccc2)c(-c2ccc(F)cc2)n1CC[C@@H](O)C[C@H](O)CC(=O)O` [ATORVASTATIN hemi-calcium sesqui-hydrate, (3S,5R)-7-[3-(anilinocarbonyl)-5-(4-fluorophenyl)-2-isopropyl-4-phenyl-1H-pyrrol-1-yl]-3,5-dihydroxyheptanoic acid]: the ED50 came out at 23 mg/kg. For the same compound, where the note is “ATORVASTATIN hemi-calcium sesqui-hydrate alone 0.5 mg/kg by gavage, rats, no significant effect”, the “decrease of LPS-induced TNFα versus placebo” value is 11%.
